SMILES strings stand for the structures. Bounds are passed on as bounds.

One may read the Kd as a measure of binding affinity in units of concentration. High values mean a looser complex, low ones a tighter complex.

The target in the assay is human TYK2 (JH2domain-pseudokinase) (Homo sapiens (Human), UniProt P29597). Kind of assay: TYK2 JH2 Domain Binding Assay (KINOMEscan, DiscoveRx). Conditions: 11-point dilution, duplicate. The method, boiled down: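 TYK2 JH2 (G556–D888)–NFkB DBD fusion, DNA-tagged, from HEK293 extracts (<0.1 nM) competed against immobilised biotinylated ligand for 1 h at room temperature, 0.9% DMSO. Bead-retained kinase quantified by qPCR; Kd from 11-point 3-fold series (top 30,000 nM, duplicate), Hill fit with slope −1.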
human TYK2 (JH2domain-pseudokinase), sequence (P29597 556-888): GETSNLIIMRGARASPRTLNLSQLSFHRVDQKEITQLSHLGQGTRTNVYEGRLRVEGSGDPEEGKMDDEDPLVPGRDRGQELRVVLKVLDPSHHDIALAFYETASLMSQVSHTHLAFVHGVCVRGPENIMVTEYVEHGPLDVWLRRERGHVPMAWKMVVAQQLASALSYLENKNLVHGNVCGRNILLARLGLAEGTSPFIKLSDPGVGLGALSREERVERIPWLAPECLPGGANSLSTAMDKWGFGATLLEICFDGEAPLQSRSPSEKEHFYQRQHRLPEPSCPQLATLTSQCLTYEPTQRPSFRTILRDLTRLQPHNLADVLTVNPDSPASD
`Cc1nc2c(Nc3ccc(C4CCC4)cc3S(C)(=O)=O)cc(NC(=O)[C@H]3CC3(F)F)nc2[nH]1` [I-412, (R)—N-(7-((4-cyclobutyl-2-(methylsulfonyl)phenyl)amino)-2-methyl-3H-imidazo[4,5-b]pyridin-5-yl)-2,2-difluorocyclopropane-1-carboxamide] showed a Kd above 10 nM.

With `Cc1nc2c(Nc3ccc(C4CCC4)cc3S(C)(=O)=O)cc(NC(=O)[C@H]3C[C@H]3F)nc2[nH]1` [I-413, (1R,2R)—N-(7-((4-cyclobutyl-2-(methylsulfonyl)phenyl)amino)-2-methyl-3H-imidazo[4,5-b]pyridin-5-yl)-2-fluorocyclopropane-1-carboxamide], the Kd fell in the range of 0.5 to 1 nM.

`Cc1nc2c(Nc3ccc(C4CCC4)cc3S(C)(=O)=O)cc(NC(=O)[C@@H]3C[C@@H]3F)nc2[nH]1` [I-414, (1S,2S)—N-(7-((4-cyclobutyl-2-(methylsulfonyl)phenyl)amino)-2-methyl-3H-imidazo[4,5-b]pyridin-5-yl)-2-fluorocyclopropane-1-carboxamide] had a Kd of 0.1 to 0.5 nM.

For the compound `Cc1nc(-c2ccc(Nc3cc(NC(=O)C4CC4)nc4[nH]c(C(F)F)nc34)c(S(C)(=O)=O)c2)sc1C` [I-415, N-(2-(difluoromethyl)-7-((4-(4,5-dimethylthiazol-2-yl)-2-(methylsulfonyl)phenyl)amino)-3H-imidazo[4,5-b]pyridin-5-yl)cyclopropanecarboxamide], the dissociation constant (Kd) lay within 1 to 10 nM.

`Cc1cc(Nc2cc(Nc3ccc(C4CC4)cc3S(C)(=O)=O)c3nc(C(F)F)[nH]c3n2)nc(C)n1` [I-416, N7-(4-cyclopropyl-2-(methylsulfonyl)phenyl)-2-(difluoromethyl)-N5-(2,6-dimethylpyrimidin-4-yl)-3H-imidazo[4,5-b]pyridine-5,7-diamine] came in with a Kd of 0.1 to 0.5 nM.

For `Cc1ncc(Nc2cc(Nc3ccc(C4CC4)cc3S(C)(=O)=O)c3nc(C(F)F)[nH]c3n2)nc1C` [I-417, N7-(4-cyclopropyl-2-(methylsulfonyl)phenyl)-2-(difluoromethyl)-N5-(5,6-dimethylpyrazin-2-yl)-3H-imidazo[4,5-b]pyridine-5,7-diamine], the Kd is 1 to 10 nM.

Compound `Cc1ccc(-c2ccc(Nc3cc(NC(=O)C4CC4)nc4[nH]c(C(F)F)nc34)c(S(C)(=O)=O)c2)o1` [I-418, N-(2-(difluoromethyl)-7-((4-(5-methylfuran-2-yl)-2-(methylsulfonyl)phenyl)amino)-3H-imidazo[4,5-b]pyridin-5-yl)cyclopropanecarboxamide] showed a Kd of 1 to 10 nM.

`Cc1nc2c(Nc3ccc(-c4ccc(C)o4)cc3S(C)(=O)=O)cc(NC(=O)C3CC3)nc2[nH]1` [I-419, N-(2-methyl-7-((4-(5-methylfuran-2-yl)-2-(methylsulfonyl)phenyl)amino)-3H-imidazo[4,5-b]pyridin-5-yl)cyclopropanecarboxamide] gave a Kd of 0.1 to 0.5 nM.

Consider `Cc1cc(-c2ccc(Nc3cc(NC(=O)C4CC4)nc4[nH]c(C(F)F)nc34)c(S(C)(=O)=O)c2)oc1C` [I-420, N-(2-(difluoromethyl)-7-((4-(4,5-dimethylfuran-2-yl)-2-(methylsulfonyl)phenyl)amino)-3H-imidazo[4,5-b]pyridin-5-yl)cyclopropanecarboxamide], for which the Kd lay within 1 to 10 nM.

The compound `Cc1nc2c(Nc3ccc(-c4cc(C)c(C)o4)cc3S(C)(=O)=O)cc(NC(=O)C3CC3)nc2[nH]1` [I-421, N-(7-((4-(4,5-dimethylfuran-2-yl)-2-(methylsulfonyl)phenyl)amino)-2-methyl-3H-imidazo[4,5-b]pyridin-5-yl)cyclopropanecarboxamide] displayed a Kd of 0.1 to 0.5 nM.

For the compound `Cc1nc2c(Nc3ccc([C@H]4CCCO4)cc3S(C)(=O)=O)cc(NC(=O)[C@@H]3CC3(F)F)nc2[nH]1` [I-422, (S)-2,2-difluoro-N-(2-methyl-7-((2-(methylsulfonyl)-4-((R)-tetrahydrofuran-2-yl)phenyl)amino)-3H-imidazo[4,5-b]pyridin-5-yl)cyclopropane-1-carboxamide], the Kd was in the range of 0.5 to 1 nM.

For `Cc1nc2c(Nc3ccc([C@H]4CCCO4)cc3S(C)(=O)=O)cc(NC(=O)[C@H]3CC3(F)F)nc2[nH]1` [I-423, (R)-2,2-difluoro-N-(2-methyl-7-((2-(methylsulfonyl)-4-((R)-tetrahydrofuran-2-yl)phenyl)amino)-3H-imidazo[4,5-b]pyridin-5-yl)cyclopropane-1-carboxamide], the Kd fell in the range of 1 to 10 nM.

Regarding `CS(=O)(=O)c1cc([C@@H]2CCCO2)ccc1Nc1cc(NC(=O)C2CC2)nc2[nH]c(C(F)F)nc12` [I-424, (S)—N-(2-(difluoromethyl)-7-((2-(methylsulfonyl)-4-(tetrahydrofuran-2-yl)phenyl)amino)-3H-imidazo[4,5-b]pyridin-5-yl)cyclopropanecarboxamide], the Kd is below 0.1 nM.

In the case of `CS(=O)(=O)c1cc([C@H]2CCCO2)ccc1Nc1cc(NC(=O)C2CC2)nc2[nH]c(C(F)F)nc12` [I-425, (R)—N-(2-(difluoromethyl)-7-((2-(methylsulfonyl)-4-(tetrahydrofuran-2-yl)phenyl)amino)-3H-imidazo[4,5-b]pyridin-5-yl)cyclopropanecarboxamide], the Kd is 0.1 to 0.5 nM.

Consider `Cc1nc2c(Nc3ccc([C@@H]4CCCO4)cc3S(C)(=O)=O)cc(NC(=O)[C@@H]3CC3(F)F)nc2[nH]1` [I-426, (S)-2,2-difluoro-N-(2-methyl-7-((2-(methylsulfonyl)-4-((S)-tetrahydrofuran-2-yl)phenyl)amino)-3H-imidazo[4,5-b]pyridin-5-yl)cyclopropane-1-carboxamide], for which the Kd lay within 0.1 to 0.5 nM.

The compound `Cc1nc2c(Nc3ccc([C@@H]4CCCO4)cc3S(C)(=O)=O)cc(NC(=O)[C@H]3CC3(F)F)nc2[nH]1` [I-427, (R)-2,2-difluoro-N-(2-methyl-7-((2-(methylsulfonyl)-4-((S)-tetrahydrofuran-2-yl)phenyl)amino)-3H-imidazo[4,5-b]pyridin-5-yl)cyclopropane-1-carboxamide] had a Kd of 0.1 to 0.5 nM.

In turn, `CC1(C)COC(c2ccc(Nc3cc(NC(=O)[C@@H]4C[C@@H]4F)nc4[nH]c(C(F)F)nc34)c(S(C)(=O)=O)c2)=N1` [I-428, (1S,2S)—N-(2-(difluoromethyl)-7-((4-(4,4-dimethyl-4,5-dihydrooxazol-2-yl)-2-(methylsulfonyl)phenyl)amino)-3H-imidazo[4,5-b]pyridin-5-yl)-2-fluorocyclopropane-1-carboxamide] registered a Kd of 1 to 10 nM.

The compound `Cn1ccc(-c2ccc(Nc3cc(NC(=O)C4CC4)nc4[nH]c(C(F)F)nc34)c(P(C)(C)=O)c2)n1` [I-429, N-(2-(difluoromethyl)-7-((2-(dimethylphosphoryl)-4-(1-methyl-1H-pyrazol-3-yl)phenyl)amino)-3H-imidazo[4,5-b]pyridin-5-yl)cyclopropanecarboxamide] gave a Kd below 0.1 nM.

`Cc1nc2c(Nc3ccc(-c4ccn(C)n4)cc3P(C)(C)=O)cc(NC(=O)C3CC3)nc2[nH]1` [I-430, N-(7-((2-(dimethylphosphoryl)-4-(1-methyl-1H-pyrazol-3-yl)phenyl)amino)-2-methyl-3H-imidazo[4,5-b]pyridin-5-yl)cyclopropanecarboxamide] displayed a Kd of 0.1 to 0.5 nM.

`Cc1nc2c(Nc3ccc(C4CCOCC4)cc3P(C)(C)=O)cc(NC(=O)C3CC3)nc2[nH]1` [I-431, N-(7-((2-(dimethylphosphoryl)-4-(tetrahydro-2H-pyran-4-yl)phenyl)amino)-2-methyl-3H-imidazo[4,5-b]pyridin-5-yl)cyclopropanecarboxamide] had a Kd of 0.5 to 1 nM.

Turning to `CS(=O)(=O)c1cc(C2CCC2)ccc1Nc1cc(NC(=O)[C@H]2C[C@H]2F)nc2[nH]c(C(F)F)nc12` [I-432, (1R,2R)—N-(7-((4-cyclobutyl-2-(methylsulfonyl)phenyl)amino)-2-(difluoromethyl)-3H-imidazo[4,5-b]pyridin-5-yl)-2-fluorocyclopropane-1-carboxamide], the Kd lay within 1 to 10 nM.

As for `CS(=O)(=O)c1cc(C2CCC2)ccc1Nc1cc(NC(=O)[C@@H]2C[C@@H]2F)nc2[nH]c(C(F)F)nc12` [I-433, (1S, 2S)—N-(7-((4-cyclobutyl-2-(methylsulfonyl)phenyl)amino)-2-(difluoromethyl)-3H-imidazo[4,5-b]pyridin-5-yl)-2-fluorocyclopropane-1-carboxamide], the Kd was 0.1 to 0.5 nM.

Turning to `Cc1cc(Nc2cc(Nc3ccc(C4CC4)cc3S(C)(=O)=O)c3nc(C)[nH]c3n2)nc(C)n1` [I-434, N7-(4-cyclopropyl-2-(methylsulfonyl)phenyl)-N5-(2,6-dimethylpyrimidin-4-yl)-2-methyl-3H-imidazo[4,5-b]pyridine-5,7-diamine], the Kd fell in the range of 0.1 to 0.5 nM.

Compound `Cc1nc2c(Nc3ccc(C4CC4)cc3S(C)(=O)=O)cc(Nc3cnc(C)c(C)n3)nc2[nH]1` [I-435, N7-(4-cyclopropyl-2-(methylsulfonyl)phenyl)-N5-(5,6-dimethylpyrazin-2-yl)-2-methyl-3H-imidazo[4,5-b]pyridine-5,7-diamine] came in with a Kd of 0.1 to 0.5 nM.

`CS(=O)(=O)c1cc(C2CC2)ccc1Nc1cc(Nc2cc3n(n2)CCOC3)nc2[nH]c(C(F)F)nc12` [I-436, N7-(4-cyclopropyl-2-(methylsulfonyl)phenyl)-2-(difluoromethyl)-N5-(6,7-dihydro-4H-pyrazolo[5,1-c][1,4]oxazin-2-yl)-3H-imidazo[4,5-b]pyridine-5,7-diamine]: the Kd lay within 0.1 to 0.5 nM.

`Cc1nc2c(Nc3ccc(C4CC4)cc3S(C)(=O)=O)cc(Nc3cc4n(n3)CCOC4)nc2[nH]1` [I-437, N7-(4-cyclopropyl-2-(methylsulfonyl)phenyl)-N5-(6,7-dihydro-4H-pyrazolo[5,1-c][1,4]oxazin-2-yl)-2-methyl-3H-imidazo[4,5-b]pyridine-5,7-diamine] yielded a Kd below 0.1 nM.

Compound `CS(=O)(=O)c1cc([C@@H]2CCCOC2)ccc1Nc1cc(NC(=O)[C@@H]2CC2(F)F)nc2[nH]c(C(F)F)nc12` [I-438, (S)—N-(2-(difluoromethyl)-7-((2-(methylsulfonyl)-4-((S)-tetrahydro-2H-pyran-3-yl)phenyl)amino)-3H-imidazo[4,5-b]pyridin-5-yl)-2,2-difluorocyclopropane-1-carboxamide] had a Kd of 1 to 10 nM.
